Reference: PubChem BioAssay AID1259411 (Chemical Carcinogenesis Research Information System (CCRIS), 2018)
Activity calls are given as the source filed them. No rule for the calls is given here.

Test system: rodent carcinogenicity bioassays, tumor incidence
Test: CCRIS carcinogenicity studies
How it was run: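 Archive of carcinogenicity, mutagenicity, tumor promotion and tumor inhibition results drawn from journals, NCI reports and other sources, expert-reviewed; covers 1985-2011 and is no longer updated.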

O=P(O)(O)CCCl
carcinogen call (Species: Mouse, Strain/Sex: CD-1 albino/Female (20 or 50/Group), Route: Oral, Dose: 0, 100, 1000, 10,000 ppm of 70.6-72.1% ethephon for 52 (20/Group) wks and 78 (50/Group) wks, Dose: 0, 100, 1000, 10,000 ppm of 70.6-72.1% ethephon for 52 (20/Group) wks and 78 (50/Group) wks): inactive; negative
carcinogen call (Species: Mouse, Strain/Sex: CD-1 albino/Male (20 or 50/Group), Route: Oral, Dose: 0, 100, 1000, 10,000 ppm of 70.6-72.1% ethephon for 52 (20/Group) wks and 78 (50/Group) wks, Dose: 0, 100, 1000, 10,000 ppm of 70.6-72.1% ethephon for 52 (20/Group) wks and 78 (50/Group) wks): inactive; negative
carcinogen call (Species: Rat, Strain/Sex: Sprague-Dawley CD/Female (30 or 50/Group), Route: Oral, Dose: 0, 300, 3000, 10,000, 30,000 ppm of 70.6-72.1% ethephon for 104 wks, study duration 104 wks, Dose: 0, 300, 3000, 10,000, 30,000 ppm of 70.6-72.1% ethephon for 104 wks, study duration 104 wks): inactive; negative
carcinogen call (Species: Rat, Strain/Sex: Sprague-Dawley CD/Male (30 or 50/Group), Route: Oral, Dose: 0, 300, 3000, 10,000, 30,000 ppm of 70.6-72.1% ethephon for 97 wks, study duration 97 wks, Dose: 0, 300, 3000, 10,000, 30,000 ppm of 70.6-72.1% ethephon for 97 wks, study duration 97 wks): inactive; negative

Cc1cc(O)c(C(C)(C)C)cc1Sc1cc(C(C)(C)C)c(O)cc1C
carcinogen call (Species: MOUSE, Strain/Sex: B6C3F1/FEMALE, Route: ORAL, Dose: 0, 250, 500, 1000 PPM IN DIET FOR 2 YR (STUDY DURATION: 104 WK), Dose: 0, 250, 500, 1000 PPM IN DIET FOR 2 YR (STUDY DURATION: 104 WK)): inactive; negative
carcinogen call (Species: MOUSE, Strain/Sex: B6C3F1/MALE, Route: ORAL, Dose: 0, 250, 500, 1000 PPM IN DIET FOR 2 YR (STUDY DURATION: 104 WK), Dose: 0, 250, 500, 1000 PPM IN DIET FOR 2 YR (STUDY DURATION: 104 WK)): inactive; negative
carcinogen call (Species: RAT, Strain/Sex: F344/FEMALE, Route: ORAL, Dose: 0, 500, 1000, 2500 PPM IN DIET FOR 2 YR (STUDY DURATION: 104 WK), Dose: 0, 500, 1000, 2500 PPM IN DIET FOR 2 YR (STUDY DURATION: 104 WK)): inactive; negative
carcinogen call (Species: RAT, Strain/Sex: F344/MALE, Route: ORAL, Dose: 0, 500, 1000, 2500 PPM IN DIET FOR 2 YR (STUDY DURATION: 104 WK), Dose: 0, 500, 1000, 2500 PPM IN DIET FOR 2 YR (STUDY DURATION: 104 WK)): inactive; negative

CC#N
carcinogen call (Species: MOUSE, Strain/Sex: B6C3F1/FEMALE, Route: INHALATION, Dose: 0, 50, 100, 200 PPM 6 HR/D 5 D/WK FOR 103 WK (STUDY DURATION: 105 WK), Dose: 0, 50, 100, 200 PPM 6 HR/D 5 D/WK FOR 103 WK (STUDY DURATION: 105 WK)): inactive; negative
carcinogen call (Species: MOUSE, Strain/Sex: B6C3F1/MALE, Route: INHALATION, Dose: 0, 50, 100, 200 PPM 6 HR/D 5 D/WK FOR 103 WK (STUDY DURATION: 105 WK), Dose: 0, 50, 100, 200 PPM 6 HR/D 5 D/WK FOR 103 WK (STUDY DURATION: 105 WK)): inactive; negative
carcinogen call (Species: RAT, Strain/Sex: F344/FEMALE, Route: INHALATION, Dose: 0, 100, 200, 400 PPM 6/HR/D 5 D/WK FOR 103 WK (STUDY DURATION: 105 WK), Dose: 0, 100, 200, 400 PPM 6/HR/D 5 D/WK FOR 103 WK (STUDY DURATION: 105 WK)): inactive; negative
carcinogen call (Species: RAT, Strain/Sex: F344/MALE, Route: INHALATION, Dose: 0, 100, 200, 400 PPM 6/HR/D 5 D/WK FOR 103 WK (STUDY DURATION: 105 WK), Dose: 0, 100, 200, 400 PPM 6/HR/D 5 D/WK FOR 103 WK (STUDY DURATION: 105 WK), Tumor Site: Type of Lesion: LIVER: HEPATOCELLULAR ADENOMA, HEPATOCELLULAR CARCINOMA, HEPATOCELLULAR ADENOMA OR CARCINOMA): equivocal

O=C1c2ccccc2C(=O)C1c1ccc2ccccc2n1
carcinogen call (Species: RAT, Strain/Sex: F344/FEMALE, Route: ORAL, Dose: 0, 500, 1700, 5000 PPM IN DIET FOR 106 WK (STUDY DURATION: 111 WK), Dose: 0, 500, 1700, 5000 PPM IN DIET FOR 106 WK (STUDY DURATION: 111 WK), Tumor Site: Type of Lesion: LIVER: HEPATOCELLULAR ADENOMA OR CARCINOMA): active; positive
carcinogen call (Species: RAT, Strain/Sex: F344/MALE, Route: ORAL, Dose: 0, 500, 1700, 5000 PPM IN DIET FOR 105 WK (STUDY DURATION: 110 WK), Dose: 0, 500, 1700, 5000 PPM IN DIET FOR 105 WK (STUDY DURATION: 110 WK), Tumor Site: Type of Lesion: KIDNEY(RENAL TUBULE): ADENOMA OR CARCINOMA, LIVER: HEPATOCELLULAR ADENOMA, ORAL CAVITY: SQUAMOUS CELL PAPILLOMA, SQUAMOU, Tumor Site: Type of Lesion: KIDNEY(RENAL TUBULE): ADENOMA OR CARCINOMA, LIVER: HEPATOCELLULAR ADENOMA, ORAL CAVITY: SQUAMOUS CELL PAPILLOMA, SQUAMOU): active; positive

O=C1c2ccccc2C(=O)c2c(O)cccc21
carcinogen call (Species: RAT, Strain/Sex: ACI/N/MALE, Route: ORAL, Dose: 0, 1% IN BASAL DIET FOR DURATION OF STUDY (STUDY DURATION: 480 D), Tumor Site: Type of Lesion: CECUM: ADENOMA, ADENOCARCINOMA, COLON: ADENOMA, ADENOCARCINOMA, LIVER: TUMOR, STOMACH: TUMOR, Tumor Site: Type of Lesion: CECUM: ADENOMA, ADENOCARCINOMA, COLON: ADENOMA, ADENOCARCINOMA, LIVER: TUMOR, STOMACH: TUMOR): active; positive

ClCOCCOCCl
carcinogen call (Species: MOUSE, Strain/Sex: ICR/HA SWISS/FEMALE, Route: DERMAL, Dose: 0, 1 MG IN 0.1 ML CYCLOHEXANE 3/WK FOR 502 D (STUDY DURATION: 570 D), Tumor Site: Type of Lesion: SKIN: PAPILLOMA, SKIN: SQUAMOUS CARCINOMA): active; positive
carcinogen call (Species: MOUSE, Strain/Sex: ICR/HA SWISS/FEMALE, Route: INTRAPERITONEAL, Dose: 0, 0.3 MG IN 0.05 ML TRICAPRYLIN 1/WK FOR 546 D (STUDY DURATION: 570 D), Tumor Site: Type of Lesion: PERITONEUM: SARCOMA): active; positive
carcinogen call (Species: MOUSE, Strain/Sex: ICR/HA SWISS/FEMALE, Route: SUBCUTANEOUS, Dose: 0, 0.3 MG IN 0.05 ML TRICAPRYLIN 1/WK FOR 569 D (STUDY DURATION: 570 D), Tumor Site: Type of Lesion: INJECTION SITE: SARCOMA): active; positive

O=S(=O)(O)NC1CCCCC1
carcinogen call (Species: MONKEY, Strain/Sex: CYNOMOLGUS, RHESUS, AFRICAN GREEN/MALE, FEMALE, Route: ORAL, Dose: 0, 100, 500 MG/KG IN DIET FOR 24 YR (STUDY DURATION: 24 YR), Dose: 0, 100, 500 MG/KG IN DIET FOR 24 YR (STUDY DURATION: 24 YR)): inactive; negative
carcinogen call (Species: RAT, Strain/Sex: ALBINO/MALE,FEMALE, Route: SUBCUTANEOUS, Dose: 5, 15% IN AQ SOLN 3/WK FOR 85 OR 107 WK, Tumor Site: Type of Lesion: INJECTION SITE: FIBROSARCOMA): active; positive
carcinogen call (Species: RAT, Strain/Sex: SPRAGUE-DAWLEY/MALE,FEMALE, Route: ORAL, Dose: 2, 5% IN DIET PRENATALLY AND FOR LIFE): inactive; negative
